Measured values taken from the supplement of paper PMC12463676, “Small-molecule dissolution of stress granules by redox modulation benefits ALS models” (Nature Chemical Biology, 2025).

Experiments:
[1] = compound: NC(=O)CCCCC1CCSS1 [lipoamide]; assay: thermal stability z-score vs DMSO; higher = more thermally stabilized by treatment; conditions: HeLa, lipoamide concentration 100 µM
Method: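 Cellular thermal proteome profiling in HeLa cells. Cells were treated with 100 µM lipoamide for 1 h, with or without 1 mM arsenate for a further 1 h, then heated to ten temperatures (37-66.3 °C), and soluble protein was quantified by TMT mass spectrometry relative to 0.1% DMSO controls. The thermal stability score (sum of log2 fold changes minus the abundance score) was transformed to a z-score; mean of n = 3 experiments.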

[2] = compound: O=[As]([O-])(O)O.[K+] [potassium arsenate]; assay: as above; conditions: HeLa; arsenate concentration 1 mM
Method: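 Cellular thermal proteome profiling in HeLa cells treated with 1 mM arsenate for 1 h (DMSO pretreatment), heated to ten temperatures (37-66.3 °C). Soluble protein was quantified by TMT mass spectrometry relative to DMSO controls; the thermal stability score was transformed to a z-score; mean of n = 3 experiments.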

[3] = arsenate co-treatment: 1 mM arsenate 1 h
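Further: each temperature applied for 3 min, abundance score taken as mean log2 fold change at the two lowest temperatures, z-score obtained by mean subtraction and division by SD.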

Sequence of UniProt Q9P035 (Q9P035 whole entry): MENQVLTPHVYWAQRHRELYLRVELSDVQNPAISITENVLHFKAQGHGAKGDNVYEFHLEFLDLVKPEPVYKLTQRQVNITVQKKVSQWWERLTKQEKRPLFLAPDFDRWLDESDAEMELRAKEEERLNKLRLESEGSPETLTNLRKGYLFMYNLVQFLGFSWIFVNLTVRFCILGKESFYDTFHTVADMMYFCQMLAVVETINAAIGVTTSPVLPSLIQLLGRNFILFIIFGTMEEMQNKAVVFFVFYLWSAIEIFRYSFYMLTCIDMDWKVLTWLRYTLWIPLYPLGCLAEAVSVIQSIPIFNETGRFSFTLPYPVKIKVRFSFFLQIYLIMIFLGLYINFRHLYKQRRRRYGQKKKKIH
Sequence of UniProt P46976 (P46976 whole entry): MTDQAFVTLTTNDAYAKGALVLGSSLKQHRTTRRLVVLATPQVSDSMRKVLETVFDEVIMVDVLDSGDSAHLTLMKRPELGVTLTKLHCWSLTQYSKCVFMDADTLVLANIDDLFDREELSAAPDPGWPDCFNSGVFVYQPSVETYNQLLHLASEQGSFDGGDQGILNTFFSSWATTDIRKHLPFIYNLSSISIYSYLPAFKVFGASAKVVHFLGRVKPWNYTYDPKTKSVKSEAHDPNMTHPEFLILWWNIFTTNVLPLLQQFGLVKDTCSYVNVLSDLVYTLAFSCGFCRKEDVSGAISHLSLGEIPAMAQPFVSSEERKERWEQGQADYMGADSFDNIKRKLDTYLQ
Sequence of UniProt P35269 (P35269 whole entry): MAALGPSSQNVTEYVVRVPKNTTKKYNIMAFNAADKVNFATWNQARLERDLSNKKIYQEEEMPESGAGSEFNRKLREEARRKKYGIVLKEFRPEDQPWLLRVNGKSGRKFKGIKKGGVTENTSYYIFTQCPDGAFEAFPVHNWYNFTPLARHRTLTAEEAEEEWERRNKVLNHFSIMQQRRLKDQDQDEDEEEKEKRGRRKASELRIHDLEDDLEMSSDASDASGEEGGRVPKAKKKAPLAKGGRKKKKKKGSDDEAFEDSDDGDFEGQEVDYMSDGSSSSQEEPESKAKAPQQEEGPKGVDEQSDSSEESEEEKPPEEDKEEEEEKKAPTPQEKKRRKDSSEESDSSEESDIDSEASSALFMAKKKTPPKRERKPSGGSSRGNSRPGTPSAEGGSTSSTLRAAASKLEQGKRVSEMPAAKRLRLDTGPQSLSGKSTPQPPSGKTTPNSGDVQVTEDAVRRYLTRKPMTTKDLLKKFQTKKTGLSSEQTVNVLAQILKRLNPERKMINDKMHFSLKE
Sequence of UniProt Q9UKN8 (Q9UKN8 whole entry): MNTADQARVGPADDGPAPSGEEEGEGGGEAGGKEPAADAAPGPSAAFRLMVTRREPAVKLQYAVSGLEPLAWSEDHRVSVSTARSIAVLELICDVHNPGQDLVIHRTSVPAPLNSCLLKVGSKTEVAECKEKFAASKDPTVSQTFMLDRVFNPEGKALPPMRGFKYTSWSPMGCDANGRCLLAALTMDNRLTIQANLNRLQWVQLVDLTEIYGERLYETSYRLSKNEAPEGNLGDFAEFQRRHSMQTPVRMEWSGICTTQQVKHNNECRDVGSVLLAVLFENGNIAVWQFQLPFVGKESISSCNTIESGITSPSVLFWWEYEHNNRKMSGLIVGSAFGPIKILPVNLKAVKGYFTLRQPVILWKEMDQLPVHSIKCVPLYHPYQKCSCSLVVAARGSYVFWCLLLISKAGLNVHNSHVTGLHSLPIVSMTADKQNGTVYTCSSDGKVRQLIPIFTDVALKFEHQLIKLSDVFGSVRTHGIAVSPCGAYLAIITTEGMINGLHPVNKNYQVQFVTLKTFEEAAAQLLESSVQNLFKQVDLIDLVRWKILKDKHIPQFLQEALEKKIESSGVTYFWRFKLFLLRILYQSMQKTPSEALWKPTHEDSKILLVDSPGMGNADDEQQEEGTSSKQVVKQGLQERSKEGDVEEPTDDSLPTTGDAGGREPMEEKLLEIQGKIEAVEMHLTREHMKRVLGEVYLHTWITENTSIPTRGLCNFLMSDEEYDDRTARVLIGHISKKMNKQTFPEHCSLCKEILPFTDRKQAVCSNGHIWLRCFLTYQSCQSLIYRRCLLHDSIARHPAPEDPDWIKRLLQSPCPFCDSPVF
Sequence of UniProt P21266 (P21266 whole entry): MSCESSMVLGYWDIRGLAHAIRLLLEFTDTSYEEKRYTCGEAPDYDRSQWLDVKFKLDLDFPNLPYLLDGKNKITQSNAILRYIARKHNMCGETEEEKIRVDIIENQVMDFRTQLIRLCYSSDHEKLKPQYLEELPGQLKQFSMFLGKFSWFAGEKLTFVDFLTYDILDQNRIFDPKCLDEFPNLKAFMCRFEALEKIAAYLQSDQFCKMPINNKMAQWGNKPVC
Sequence of UniProt P29084 (P29084 whole entry): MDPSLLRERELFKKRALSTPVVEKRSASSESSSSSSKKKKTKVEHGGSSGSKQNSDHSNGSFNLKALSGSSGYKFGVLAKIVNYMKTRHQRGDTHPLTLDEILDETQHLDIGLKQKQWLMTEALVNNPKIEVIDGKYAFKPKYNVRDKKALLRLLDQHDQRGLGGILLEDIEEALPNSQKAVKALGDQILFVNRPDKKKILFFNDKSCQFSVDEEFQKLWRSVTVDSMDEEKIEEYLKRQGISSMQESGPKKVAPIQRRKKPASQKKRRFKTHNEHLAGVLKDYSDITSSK
Sequence of UniProt Q9BX10 (Q9BX10 whole entry): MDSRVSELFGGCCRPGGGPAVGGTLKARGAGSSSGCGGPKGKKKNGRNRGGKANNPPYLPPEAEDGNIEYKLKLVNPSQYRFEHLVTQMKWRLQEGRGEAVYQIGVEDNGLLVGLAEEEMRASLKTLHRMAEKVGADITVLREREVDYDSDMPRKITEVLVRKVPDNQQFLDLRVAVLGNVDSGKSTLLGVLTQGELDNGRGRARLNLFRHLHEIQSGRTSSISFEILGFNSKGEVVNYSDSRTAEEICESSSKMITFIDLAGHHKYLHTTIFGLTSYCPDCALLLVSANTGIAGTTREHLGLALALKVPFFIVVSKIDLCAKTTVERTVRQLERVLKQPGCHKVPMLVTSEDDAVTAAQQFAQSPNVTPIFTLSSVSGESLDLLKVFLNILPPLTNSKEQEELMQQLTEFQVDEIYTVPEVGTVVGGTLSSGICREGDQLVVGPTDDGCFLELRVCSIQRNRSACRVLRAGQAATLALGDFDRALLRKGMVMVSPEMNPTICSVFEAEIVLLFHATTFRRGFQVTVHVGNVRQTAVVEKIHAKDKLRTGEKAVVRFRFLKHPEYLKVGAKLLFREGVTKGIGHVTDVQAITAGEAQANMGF
Sequence of UniProt Q8N3Z3 (Q8N3Z3 whole entry): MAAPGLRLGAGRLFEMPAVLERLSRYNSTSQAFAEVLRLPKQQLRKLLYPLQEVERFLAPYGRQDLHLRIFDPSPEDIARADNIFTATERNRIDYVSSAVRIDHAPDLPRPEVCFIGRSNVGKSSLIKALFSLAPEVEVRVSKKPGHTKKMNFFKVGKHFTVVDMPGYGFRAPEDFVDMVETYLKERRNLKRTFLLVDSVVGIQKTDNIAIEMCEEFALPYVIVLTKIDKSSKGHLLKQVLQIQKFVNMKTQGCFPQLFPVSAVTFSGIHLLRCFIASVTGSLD
Sequence of UniProt Q8NEC7 (Q8NEC7 whole entry): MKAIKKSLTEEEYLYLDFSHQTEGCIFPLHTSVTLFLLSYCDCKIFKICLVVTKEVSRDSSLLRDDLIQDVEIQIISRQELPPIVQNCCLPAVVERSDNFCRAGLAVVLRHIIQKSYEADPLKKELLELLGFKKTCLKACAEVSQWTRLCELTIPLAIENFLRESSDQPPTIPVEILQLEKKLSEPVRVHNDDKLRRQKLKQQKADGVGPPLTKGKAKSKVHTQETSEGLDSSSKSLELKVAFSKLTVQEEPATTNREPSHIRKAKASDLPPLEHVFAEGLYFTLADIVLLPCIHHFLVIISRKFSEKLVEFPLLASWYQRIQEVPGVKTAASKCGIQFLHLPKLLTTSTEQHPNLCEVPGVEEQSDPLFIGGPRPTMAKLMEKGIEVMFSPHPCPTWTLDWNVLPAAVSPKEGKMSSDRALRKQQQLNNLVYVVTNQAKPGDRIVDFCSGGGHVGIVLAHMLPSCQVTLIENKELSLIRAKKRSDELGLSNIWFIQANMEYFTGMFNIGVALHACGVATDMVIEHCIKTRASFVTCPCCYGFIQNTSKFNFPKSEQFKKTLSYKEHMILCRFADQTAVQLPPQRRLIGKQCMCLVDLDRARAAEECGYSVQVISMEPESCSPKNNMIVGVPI
Sequence of UniProt Q9UBQ7 (Q9UBQ7 whole entry): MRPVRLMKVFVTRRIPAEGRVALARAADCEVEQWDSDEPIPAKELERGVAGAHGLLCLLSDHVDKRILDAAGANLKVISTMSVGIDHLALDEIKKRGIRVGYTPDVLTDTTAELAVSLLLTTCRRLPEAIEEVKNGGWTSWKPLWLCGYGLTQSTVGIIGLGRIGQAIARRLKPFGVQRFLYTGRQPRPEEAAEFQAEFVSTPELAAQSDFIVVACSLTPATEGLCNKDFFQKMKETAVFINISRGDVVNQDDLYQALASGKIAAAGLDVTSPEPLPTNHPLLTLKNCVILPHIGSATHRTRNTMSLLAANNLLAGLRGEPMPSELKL
Sequence of UniProt P52657 (P52657 whole entry): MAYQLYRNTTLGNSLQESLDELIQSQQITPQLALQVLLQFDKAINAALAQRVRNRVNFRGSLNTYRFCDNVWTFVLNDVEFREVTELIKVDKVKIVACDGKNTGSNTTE
Sequence of UniProt P30711 (P30711 whole entry): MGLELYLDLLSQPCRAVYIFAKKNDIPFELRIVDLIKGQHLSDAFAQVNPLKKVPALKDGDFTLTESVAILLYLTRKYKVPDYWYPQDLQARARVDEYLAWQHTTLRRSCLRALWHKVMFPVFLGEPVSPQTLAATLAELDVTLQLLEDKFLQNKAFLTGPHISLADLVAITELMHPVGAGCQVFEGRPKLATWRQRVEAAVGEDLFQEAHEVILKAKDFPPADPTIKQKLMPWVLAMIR

Target	thermal stability z-score [1, 3]	thermal stability z-score ([1]; arsenate co-treatment: none)	thermal stability z-score [2]
GRAMD1A (UniProt Q96CP6)	-1.5	-1.05	0.0677
GRAMD1B (UniProt Q3KR37)	-0.102	0.0763	-0.00294
GRAMD3 (UniProt Q96HH9)	0.155	0.0561	-0.0476
GRB2 (UniProt P62993)	0.496	0.364	0.0852
GRB10 (UniProt Q13322)	-0.159	-0.12	-0.636
GRHPR (UniProt Q9UBQ7)	-0.261	0.411	1.22
GRIPAP1 (UniProt Q4V328)	0.163	0.254	1.53
GRN (UniProt P28799)	0.151	-0.477	0.505
GRPEL1 (UniProt Q9HAV7)	-0.953	0.246	-0.236
GRPEL2 (UniProt Q8TAA5)	-0.105	-0.123	0.107
GRSF1 (UniProt Q12849)	-0.892	-0.354	0.26
GRWD1 (UniProt Q9BQ67)	0.304	0.0318	-0.541
GSDMD (UniProt P57764)	0.143	0.362	-0.198
GSE1 (UniProt Q14687)	0.0903	0.0397	-0.12
GSK3A (UniProt P49840)	-0.401	-0.28	-0.881
GSK3B (UniProt P49841)	-0.109	-0.308	0.326
GSN (UniProt P06396)	0.0431	-0.257	0.0381
GSPT1 (UniProt P15170)	-0.00711	0.472	0.226
GSPT2 (UniProt Q8IYD1)	-0.0489	-0.153	-0.621
GSR (UniProt P00390)	0.558	0.347	-0.106
GSS (UniProt P48637)	-0.2	-0.141	-0.183
GSTCD (UniProt Q8NEC7)	0.682	0.492	-0.0694
GSTK1 (UniProt Q9Y2Q3)	-0.0293	0.351	-0.0332
GSTM3 (UniProt P21266)	0.731	0.402	1.48

Target	thermal stability z-score [1, 3]	thermal stability z-score ([1]; arsenate co-treatment: none)	thermal stability z-score [2]
GSTO1 (UniProt P78417)	3	2.41	0.362
GSTT1 (UniProt P30711)	1.07	0.0783	-0.279
GSTT2|GSTT2B|EM	0.517	0.277	-0.23
GSTZ1 (UniProt O43708)	-0.243	0.0552	0.239
GTF2A1 (UniProt P52655)	1.26	1.56	1.02
GTF2A2 (UniProt P52657)	-0.322	-0.782	-0.823
GTF2B (UniProt Q00403)	-0.0775	0.338	-1.93
GTF2E1 (UniProt P29083)	-0.0787	0.126	0.733
GTF2E2 (UniProt P29084)	-0.693	-0.556	0.0275
GTF2F1 (UniProt P35269)	-0.208	-0.0526	-0.307
GTF2F2 (UniProt P13984)	0.00925	-0.239	-0.198
GTF2H1 (UniProt P32780)	-0.0618	-0.0128	-0.0702
GTF2H2|GTF2H2C	0.00796	-0.0811	-0.166
GTF2H3 (UniProt Q13889)	0.0675	-0.229	-0.106
GTF2H4 (UniProt Q92759)	0.108	0.112	0.148
GTF2I (UniProt P78347)	-0.117	0.0929	-0.472
GTF3A (UniProt Q92664)	-0.654	-0.754	-1.35
GTF3C1 (UniProt Q12789)	0.0666	-0.0357	-0.534
GTF3C2 (UniProt Q8WUA4)	0.112	0.0176	-0.411
GTF3C3 (UniProt Q9Y5Q9)	-0.0672	0.0153	-0.461
GTF3C4 (UniProt Q9UKN8)	0.237	0.0733	-1.21
GTF3C5 (UniProt Q9Y5Q8)	0.0669	0.0127	-0.367
GTF3C6 (UniProt Q969F1)	0.05	-0.0491	-0.175
GTPBP1 (UniProt O00178)	-0.325	-0.107	0.493

Target	thermal stability z-score [1, 3]	thermal stability z-score ([1]; arsenate co-treatment: none)	thermal stability z-score [2]
GTPBP2 (UniProt Q9BX10)	0.122	0.0371	0.0134
GTPBP3 (UniProt Q969Y2)	0.357	0.272	0.354
GTPBP4 (UniProt Q9BZE4)	-0.6	0.00531	-1
GTPBP6 (UniProt O43824)	0.0509	-0.133	0.043
GTPBP8 (UniProt Q8N3Z3)	0.145	0.0392	-0.0237
GTPBP10 (UniProt A4D1E9)	-0.946	0.2	0.522
GTSE1 (UniProt Q9NYZ3)	-0.0607	0.0853	-0.213
GUK1 (UniProt Q16774)	0.321	0.714	0.29
GUSB (UniProt P08236)	-0.178	-0.261	0.885
GXYLT1 (UniProt Q4G148)	-0.938	-0.906	0.387
GYG1 (UniProt P46976)	-0.215	0.14	-0.536
GYS1 (UniProt P13807)	0.31	0.22	0.706
H1F0 (UniProt P07305)	0.135	-0.22	-0.062
H1FX (UniProt Q92522)	-0.468	-0.893	-1.7
H2AFX (UniProt P16104)	-0.033	-0.0884	-0.415
H2AFY (UniProt O75367)	0.112	0.0481	0.327
H2AFZ|H2AFV	1.28	1.33	-1.63
H6PD (UniProt O95479)	-1.51	-1.8	-0.472
HABP4 (UniProt Q5JVS0)	0.171	-0.0888	-0.0745
HACD1 (UniProt B0YJ81)	-0.754	-1.15	-0.388
HACD2 (UniProt Q6Y1H2)	-0.673	-0.4	0.798
HACD3 (UniProt Q9P035)	-1.92	-0.722	-1.47
HACL1 (UniProt Q9UJ83)	0.259	-0.331	0.107
HADH (UniProt Q16836)	0.136	0.477	-0.432
